Measurements as given in ChEMBL document CHEMBL1158732, “Intercedensides D-I, cytotoxic triterpene glycosides from the sea cucumber Mensamaria intercedens Lampert” (2005).

Legend:
A549 = experiment: Cytotoxicity against human A549 cells by SRB method; assay type: functional; conditions: read-out: ED50 (the source's name)
[1] = Cytotoxicity against human U87MG cells by SRB method; assay type: functional, U-87MG ATCC; conditions: U-87 MG, read-out: ED50 (the source's name)
[2] = Cytotoxicity against human KBVIN cells by SRB method; assay type: functional; conditions: read-out: ED50 (the source's name)
1A9 = experiment: Cytotoxicity against human 1A9 cells by SRB method; assay type: functional; conditions: read-out: ED50 (the source's name)
KB = experiment: Cytotoxicity against human KB cells by SRB method; assay type: functional; conditions: read-out: ED50 (the source's name)
HCT-8 = experiment: Cytotoxicity against human HCT8 cells by SRB method; assay type: functional; conditions: read-out: ED50 (the source's name)
SK-MEL-2 = experiment: Cytotoxicity against human SK-MEL-2 cells by SRB method; assay type: functional; conditions: read-out: ED50 (the source's name)
CAKI-1 = experiment: Cytotoxicity against human Caki1 cells by SRB method; assay type: functional; conditions: read-out: ED50 (the source's name)
PC-3 = experiment: Cytotoxicity against human PC3 cells by SRB method; assay type: functional; conditions: read-out: ED50 (the source's name)
MCF7 = experiment: Cytotoxicity against human MCF7 cells by SRB method; assay type: functional; conditions: read-out: ED50 (the source's name)

CO[C@@H]1[C@@H](O)[C@H](O[C@@H]2[C@@H](O)[C@H](O[C@H]3[C@H](O)[C@@H](O)[C@H](O[C@H]4[C@H](O[C@H]5CC[C@]6(C)[C@@H]7CC[C@]89C(=O)O[C@@](C)(CCC=C(C)C)[C@@]8(O)[C@@H](OC(C)=O)C[C@@]9(C)C7=CC[C@H]6C5(C)C)OC[C@@H](OS(=O)(=O)[O-])[C@@H]4O)O[C@@H]3CO)OC[C@H]2O)O[C@H](CO)[C@H]1O.[Na+] [INTERCEDENSIDE F]
EC50 (A549): 1.7 mg/L
EC50 [1]: 3.3 mg/L
EC50 [2]: 3.2 mg/L
EC50 (1A9): 1.7 mg/L
EC50 (KB): 3.2 mg/L
EC50 (HCT-8): 1.9 mg/L
EC50 (SK-MEL-2): 2.1 mg/L
EC50 (CAKI-1): 1.7 mg/L
EC50 (PC-3): 2.3 mg/L
EC50 (MCF7): 2.1 mg/L

CO[C@@H]1[C@@H](O)[C@H](O[C@@H]2[C@@H](O)[C@H](O[C@H]3[C@H](O)[C@@H](O)[C@H](O[C@H]4[C@H](O[C@H]5CC[C@]6(C)[C@@H]7CC[C@]89C(=O)O[C@@](C)(/C=C\C=C(C)C)[C@@]8(O)[C@@H](OC(C)=O)C[C@@]9(C)C7=CC[C@H]6C5(C)C)OC[C@@H](OS(=O)(=O)[O-])[C@@H]4O)O[C@@H]3CO)OC[C@H]2O)O[C@H](CO)[C@H]1O.[Na+] [LNTERCEDENSIDE D]
EC50 (A549): 1.8 mg/L
EC50 [1]: 4.1 mg/L
EC50 [2]: 4.3 mg/L
EC50 (1A9): 2.4 mg/L
EC50 (KB): 3.7 mg/L
EC50 (HCT-8): 2.9 mg/L
EC50 (SK-MEL-2): 4.2 mg/L
EC50 (CAKI-1): > 5 mg/L
EC50 (PC-3): 3.3 mg/L
EC50 (MCF7): 2.4 mg/L

CO[C@@H]1[C@@H](O)[C@H](O[C@@H]2[C@@H](O)[C@H](O[C@@H]3CO[C@@H](O[C@H]4[C@H](O[C@H]5CC[C@]6(C)[C@@H]7CC[C@]89C(=O)O[C@@](C)(/C=C\C=C(C)C)[C@@]8(O)[C@@H](OC(C)=O)C[C@@]9(C)C7=CC[C@H]6C5(C)C)OC[C@@H](OS(=O)(=O)[O-])[C@@H]4O)[C@H](O)[C@H]3O)OC[C@H]2O)O[C@H](CO)[C@H]1O.[Na+] [LNTERCEDENSIDE E]
EC50 (A549): 1.4 mg/L
EC50 [1]: 2.1 mg/L
EC50 [2]: 2 mg/L
EC50 (1A9): 1.7 mg/L
EC50 (KB): 1.9 mg/L
EC50 (HCT-8): 1.1 mg/L
EC50 (SK-MEL-2): 1.6 mg/L
EC50 (CAKI-1): 1.6 mg/L
EC50 (PC-3): 1.7 mg/L
EC50 (MCF7): 1.4 mg/L

CO[C@@H]1[C@@H](O)[C@H](O[C@@H]2[C@@H](O)[C@H](O[C@@H]3CO[C@@H](O[C@H]4[C@H](O[C@H]5CC[C@]6(C)[C@@H]7CC[C@]89C(=O)O[C@@](C)(/C=C\C=C(C)C)C8[C@@H](OC(C)=O)C[C@@]9(C)C7=CC[C@H]6C5(C)C)OC[C@@H](OS(=O)(=O)[O-])[C@@H]4O)[C@H](O)[C@H]3O)OC[C@H]2O)O[C@H](CO)[C@H]1O.[Na+] (stereo not given in full) [LNTERCEDENSIDE G]
EC50 (A549): 1.6 mg/L
EC50 [1]: 3.3 mg/L
EC50 [2]: 3.9 mg/L
EC50 (1A9): 1.9 mg/L
EC50 (KB): 3.3 mg/L
EC50 (HCT-8): 1.8 mg/L
EC50 (SK-MEL-2): 2.4 mg/L
EC50 (CAKI-1): 3.8 mg/L
EC50 (PC-3): 2 mg/L
EC50 (MCF7): 2 mg/L

CO[C@@H]1[C@@H](O)[C@H](O[C@@H]2[C@@H](O)[C@H](O[C@H]3[C@H](O)[C@@H](O)[C@H](O[C@H]4[C@H](O[C@H]5CC[C@]6(C)[C@@H]7CC[C@]89C(=O)O[C@@](C)(/C=C\C=C(C)C)[C@@]8(O)[C@@H](OC(C)=O)C[C@@]9(C)C7=CC[C@H]6C5(C)C)OC[C@@H](OS(=O)(=O)[O-])[C@@H]4O)O[C@@H]3C)OC[C@H]2O)O[C@H](CO)[C@H]1O.[Na+] [LNTERCEDENSIDE H]
EC50 (A549): 1.4 mg/L
EC50 [1]: 3.2 mg/L
EC50 [2]: 3.7 mg/L
EC50 (1A9): 0.96 mg/L
EC50 (KB): 3 mg/L
EC50 (HCT-8): 1.9 mg/L
EC50 (SK-MEL-2): 2.2 mg/L
EC50 (CAKI-1): 1 mg/L
EC50 (PC-3): 2.2 mg/L
EC50 (MCF7): 1.8 mg/L
